Legend:
[1] = Pharmacokinetics of DOI from subcutaneously implanted single-layered CAPP films; assay type: in vivo; settings: CD-1 mice
Source text: (§1) FIGS. 12A-12G show in vivo delivery of 5HT2A agonist DOI from single- and multi-layer CAPP films. (FIG. 12A) In vitro cumulative release of DOI from 0.1 mm CAPP films. (FIG. 12B) Scheme of subcutaneous implantation of 0.1 mm DOI-loaded CAPP films and experimental time course. Pharmacokinetics of DOI released from subcutaneously implanted, single-layered CAPP films in (FIG. 12C) plasma (n=4) and (FIG. 12D) brain (n=4). (FIG. 12E) Scheme of subcutaneous implantation of multilayered CAPP films and experimental time course. Pharmacokinetics of DOI released from multilayered CAPP films in (FIG. 12F) plasma (n=4), and (FIG. 12G) brain (n=4).
(§2) To confirm that 5HT2A agonists could be effectively delivered in vivo from an implantable drug delivery system, the encapsulation and release of DOI (2,5-dimethoxy-4-iodoamphetamine) from CAPP films was investigated. DOI release was first observed from single-layered CAPP films. […] The DOI-loaded, single-layered films were next implanted subcutaneously in CD-1 mice (50:50 M:F mice) and monitored the pharmacokinetics and biodistribution of DOI after implantation (FIGS. 12B-12D). […] After this initial optimization, multilayered CAPP films with DOI encapsulated in the ‘release’ layers were generated and implanted them subcutaneously in CD-1 mice (50:50 M:F mice; FIG. 12E). […]

[2] = In vitro release of DOI from single-layered CAPP films; assay type: physicochemical; settings: 0.1 mm single-layered CAPP films; FIG. 12A
Source text: as §1, §2

[3] = Pharmacokinetics of DOI from subcutaneously implanted multilayered CAPP films; assay type: in vivo; settings: subcutaneous multilayered CAPP films, CD-1 mice
Source text: as §1, §2

## COc1cc(CC(C)N)c(OC)cc1I (centres unmarked) [DOI, 2,5-dimethoxy-4-iodoamphetamine]
[1]; subcutaneous 0.1 mm DOI-loaded single-layered CAPP films, plasma, FIG. 12C
  time of peak plasma concentration post-implantation: 2 h
[1]; subcutaneous single-layered CAPP films, brain, FIG. 12D
  brain distribution and clearance: rapidly accumulated in the brain after which it was cleared with similar kinetics to the blood plasma
[2]
  in vitro release kinetics: closely mimicked that of rhodamine and FITC
[3]
  absorption and tissue accumulation from the first 'release' layer: rapid absorption of DOI and accumulation in the brain (as well as kidneys and liver)
[3]; FIGS. 12F-12G
  time of second pulse in plasma and organs after the first pulse: ~20 h
